Key:
Wild type C57BL/6J mice [1] = experiment: Laser-induced choroidal neovascularization (CNV), CNV volume and F4/80 staining; type: in vivo, mouse; conditions: for Neovascularization (CNV volume): FTOi i.p. pretreatment plus 25 ng intravitreous after laser injury, day 7, isolectin B4 staining
Experimental: (§1) Laser photocoagulation (532 nm, 180 mW, 100 ms, 75 μm) (OcuLight GL; IRIDEX Corp., Mountain View, CA, USA) was performed bilaterally (volume studies: 4 spots per eye; RNA analyses: 10 spots per eye) in 6- to 8-week-old mice on day 0 to induce CNV as previously described 1-3. For drug treatment, the mice pretreated with FTO inhibitor (FB23-2, SML2694, Sigma) or vehicle (DMSO) through intraperitoneal injection (i.p, 2 mg/kg). Then, the mice were subjected to laser photocoagulation followed by intravitreous injection of the FTO inhibitor (25 ng/0.5 μl per eye) or vehicle. At day 3 after laser injury, the mice were administered the FTO inhibitor (2 mg/kg) or vehicle via intraperitoneal injection. At day 7, the eyes were collected for fluorescein labeled-isolectin B4 and F4/80 staining and for neovascular volume quantification.
RPE flat mounts were prepared as previously described 5. Briefly, at day 3 or 7 after laser injury, mice eyes were enucleated and dissected as retina and sclera-RPE-choroid complexes. The RPE-choroid sheets were immediately fixed in 4% paraformaldehyde (Electron Microscopy Sciences, 50-980-495, USA) in phosphate-buffered saline for 1 hour. […] As described previously^1, CNV volumes were determined by labeling with fluorescein labeled Griffonia Simplicifolia Lectin I (GSL I) isolectin B4 (Vector Laboratories, FL-1201, USA). […] FTO expression was visualized by immunolabeling with anti-FTO antibody (AdipoGen Life Sciences, AG-20A-0083, USA), and the specificity of labeling was assessed using isotype serum immunolabeling. […] Fluorescence images were captured by Nikon AIR laser scanning confocal microscope.
Laser photocoagulation (532 nm, 180 mW, 100 ms, 75 μm) (OcuLight GL; IRIDEX Corp., Mountain View, CA, USA) was performed bilaterally (volume studies: four spots per eye; protein analyses: 20 spots per eye) in 6- to 8-week-old male mice on day 0 to induce CNV in a masked fashion. […] Choroidal neovascularization was visualized using a blue argon laser wavelength (488 nm) and a scanning laser confocal microscope and quantified using Image J software.

Human THP-1 cells = experiment: VEGFA release in human THP-1 cells (ELISA); type: cell-based; conditions: indicated dosage of FTOi, 24 hours or 48 hours; supernatant ELISA
Experimental: Primary WT or mutant mouse bone marrow derived macrophages (BMDMs) were isolated as previously described (4). BMDMs were cultured in IMDM (Gibco) basal medium containing 10% fetal bovine serum (FBS), 30% L929 supernatants, nonessential amino acids, sodium pyruvate, 2-mercaptoethanol, and antibiotics. THP-1 cells were cultured in RPMI 1640 medium with 10% FBS and antibiotics. Human RPE cells were isolated as previously described and cultured in DMEM medium with 10% FBS and antibiotics. All cells were maintained at 37° C. in a 5% CO2 environment.
The RPE-choroid complex was isolated from mouse eyes on day 3 after laser injury and treatment with FTO inhibitor or vehicle. Eye tissues were lysed by sonication with immunoprecipitation assay (RIPA) buffer (Sigma-Aldrich, R0278, USA) containing protease inhibitor (Sigma-Aldrich, 11836170001, USA), on ice for 15 minutes. The lysate was centrifuged at 20,000×g for 15 minutes at 4° C., and total protein in the lysates was quantified using the Thermo Scientific™ Pierce™ BCA™ Protein Assay (Fisher Scientific, PI23225, USA). VEGFA protein levels in the supernatants were measured by VEGF DuoSet ELISA (R&D Systems, DY493, USA), following the manufacturer's instructions. […] VEGFA levels in the supernatants were measured by mouse or human VEGF DuoSet ELISA (R&D Systems, DY493 or DY293B, USA), following the manufacturer's instructions.

Wild type C57BL/6J mice [2] = experiment: VEGFA ELISA of RPE-choroid after laser injury; type: in vivo, mouse; conditions: FTOi i.p. plus 25 ng intravitreous, day 3 after laser injury
Experimental: as §1
The RPE-choroid complex was isolated from mouse eyes on day 3 after laser injury and treatment with FTO inhibitor or vehicle. […] The lysate was centrifuged at 20,000×g for 15 minutes at 4° C., and total protein in the lysates was quantified using the Thermo Scientific™ Pierce™ BCA™ Protein Assay (Fisher Scientific, PI23225, USA). VEGFA protein levels in the supernatants were measured by VEGF DuoSet ELISA (R&D Systems, DY493, USA), following the manufacturer's instructions. […]

human ARPE-19 cells = experiment: VEGFA release in human ARPE-19 cells; type: cell-based
[3] = Cell viability under FTO inhibition; type: cell-based

With Cc1noc(C)c1-c1cc(Cl)c(Nc2ccccc2C(=O)NO)c(Cl)c1 [FB23-2] the “Neovascularization (CNV volume)” value (Wild type C57BL/6J mice [1]) was “inhibits angiogenesis”, the “Neovascularization (CNV volume)” value (Wild type C57BL/6J mice [1]; listed as selective inhibitor) was “significant reduction in neovascularization” and the F4/80 macrophage recruitment (Wild type C57BL/6J mice [1]; laser-induced CNV, FTO inhibitor in vivo, F4/80 staining) was “not in F4/80 macrophage recruitment”. The VEGFA release (Human THP-1 cells) was “inhibits VEGFA release”, the “VEGFA protein levels in laser treated RPE-choroid tissue” value (Wild type C57BL/6J mice [2]) was “inhibits VEGFA release in vivo” and the “VEGFA protein levels in laser treated RPE-choroid tissue” value (Wild type C57BL/6J mice [2]; listed as selective inhibitor) was “suppressed VEGFA protein levels”. For the same compound, the VEGFA release (human ARPE-19 cells) was “suppressed the VEGFA release” and the “Adverse effects on cell viability” value [3] was “minimal adverse effects on cell viability”.

Reference: patent US20260174858A1, “TARGETING THE m6A MRNA DEMETHYLASE FTO” (University of Virginia Patent Foundation, priority 2022, published 2026)
